# Values quoted from earlier work in patent publication US8759403B2, “Curcuminoids and its metabolites for the application in allergic ocular/nasal conditions” (Laila Pharmaceutical Pvt. Ltd., priority 2009, dated 2014).
# What was measured:
# [1] = tested on: guinea pigs; conditions: 20 mg/kg body weight
# [2] = tested on: mast cells
# [3] = tested on: murine model of allergy; conditions: mouse, in vivo
compound,measurement,setting,value
COc1cc(/C=C/C(=O)CC(=O)/C=C/c2ccc(O)c(OC)c2)ccc1O [curcumin],airway hyper reactivity,[1]; p<0.0043,significantly inhibits
same,OVA-induced airway constriction,[1]; p<0.0399,significantly inhibits
same,histamine release from mast cells,[2],inhibitory effect
same,allergic response in treated animals,[3],marked inhibition of allergic response
